Measured values: patent publication US20230026808A1, “COMPOUNDS, COMPOSITIONS, AND METHODS FOR TREATING ISCHEMIA-REPERFUSION INJURY AND/OR LUNG INJURY” (YALE UNIVERSITY, priority 2019, published 2023)
“Also recorded” adds a separate entry of the source. Where two headings read alike, the source gives them in different places. Marks after values point to notes of the source that are not given here.

Legend:
[1] = Clinical pharmacokinetics of pazopanib; assay type: in vivo; conditions: human, IV 20 mg/subject, extrapolated
[2] = in vivo; conditions: rat, iv; for AUC(0-inf) / Cmax: 10 mg/kg/day
[3] = in vivo; conditions: monkey, iv; for AUC(0-inf) / Cmax: 10 mg/kg/day
[4] = cited from earlier work; for AUC / Cmax: human
[5] = test system: p38 phosphorylation; experiment: p38 phosphorylation in mouse neutrophils; assay type: cell-based
Method: (§1) Mouse bone marrow neutrophils were isolated from long bones. After lysis of red blood cells (RBCs) with ACK buffer (155 mM NH4Cl, 10 mM KHCO3 and 127 μM EDTA), bone marrow cells were separated on a discontinuous Percoll gradient composed of 81%, 62%, and 45% Percoll. Neutrophils were collected at the interphase between 81% and 62% Percoll, washed in HBSS, and used for assays.

[6] = test system: LPS-induced ALI; experiment: LPS-induced acute lung injury mouse model; assay type: in vivo
[7] = test system: mouse neutrophils; experiment: ROS release assay in mouse neutrophils; assay type: cell-based; conditions: fMLP (1 μM)
Method: as §1
For measurement of extracellular ROS release, isolated neutrophils were placed in the reaction buffer (0.25% BSA in HBSS with Ca^2+ and Mg^2+, 10 mM Isoluminol, 100 u/ml HRP) and stimulated with fMLP or PMA. For measurement of total ROS production, neutrophils were incubated with the reaction buffer (0.25% BSA in HBSS with Ca^2+ and Mg^2+, 10 mM Luminol, 100 u/ml HRP), followed with stimulations. Chemiluminescence was read continuously in a plate reader (Perkin Elmer). For reconstituted ROS production system in COS-7 cells, PMA (2 μM) was used for stimulation.

[8] = test system: HCl-induced ALI; experiment: Acid aspiration (HCl)-induced acute lung injury mouse model; assay type: in vivo; conditions: for BAL cytokine contents / myeloid cell (neutrophil) infiltration in BAL and lungs: injured lungs; for phosphorylated AKT levels in lung extracts: lungs subjected to ALI, AKT S473; for effect on survival: mice lacking p47^phox in hematopoietic cells
Method: Mice were anaesthetized by ketamine/Xylazine ([…] and 100 mg/kg) and were secured vertically from their incisors on a custom-made mount for orotracheal instillation. A 22G catheter (Jelco, Smiths Medical) was guided 1.5 cm below the vocal cords, and 2.5 μl/g of 0.05 M HCl was instilled. Four hours after the induction of injury, 100 μl of FITC-labeled albumin (10 mg/ml) was injected via retro-orbital vein. Mice were euthanized for sample collection 6 hours after the induction of injury. For the baseline permeability measurement, saline without HCl was administered the same way. The baseline permeability measurement was subtracted in the data presented.
In survival experiments, mice received 2.5 μl/g of 0.1 M HCl orotracheally and the observation period was extended up to 30 h.
Acute lung injury indices were quantified using HE-stained lung sections. The quantification of perivascular interstitial edema was done as the ratios of perivascular interstitial edema areas to vessel areas. More than 8 sections from the same lobes of the lungs were quantified for each mouse.
Fifteen min after HCl ALI-induction, BALs were collected from the lungs. Mouse lungs were then mechanically dissociated and filtered through a 40 μm mesh to generate a single-cell suspension, and red blood cells were lysed. BAL cells, which were pelleted and resuspended, and whole lung cells were labeled for 30 minutes at 37° C. with 1 μM CM-H2-DCFDA (C6827, Invitrogen). The cells were then labeled for the surface markers (CD45; BD Bioscience 564279; Ly-6G; BD Bioscience 560602). Flow cytometry was performed on a BD LSRII.

[9] = test system: MAP3K3; experiment: Western analysis of MAP3K3 protein content induced by fMLP in neutrophils; assay type: cell-based; conditions: mouse neutrophils
Method: as §1

[10] = test system: ERK phosphorylation; experiment: ERK phosphorylation in mouse neutrophils; assay type: cell-based
Method: as §1

[11] = IV toxicology and toxicokinetic studies in rats; conditions: for safety margin based on Cmax: vs Cmax 3.4 μg/mL in man (20 mg IV)
[12] = test system: p47^phox phosphorylation at Ser-208; experiment: Western analysis of p47^phox Ser-208 phosphorylation in fMLP-stimulated neutrophils; assay type: cell-based; conditions: fMLP (1 μM) stimulated mouse neutrophils
Method: as §1

[13] = test system: brain ischemia-reperfusion injury (IRI); experiment: Intraluminal middle cerebral artery (MCA) occlusion brain stroke mouse model; assay type: in vivo
[14] = IV administration 5 mg/subject (N=7)
[15] = oral, reported with bioavailability
[16] = therapeutic modality, intranasally post injury induction
[17] = HCl model, therapeutic modality, intranasally post injury induction
[18] = rat, 5 days, IV 20 minute infusion
[19] = drug given during ischemic phase
[20] = given i.v. 0.5 hrs after reperfusion

Structure (SMILES): Cc1ccc(Nc2nccc(N(C)c3ccc4c(C)n(C)nc4c3)n2)cc1S(N)(=O)=O [pazopanib, 5-((4-((2,3-dimethyl-2H-indazol-6-yl)(methyl)amino)pyrimidin-2-yl)amino)-2-methylbenzenesulfonamide]
- AUC(0-∞), assuming dose-linearity [1]: 81.6^a μg·h/mL
- Cmax, assuming dose-linearity [1]: 3.4^a μg/mL
- AUC(0-inf) ([1]; in vivo, read-out: AUC(0-∞), assuming dose-linearity): 81.6 µg·h/mL
- Cmax ([1]; in vivo, read-out: Cmax, assuming dose-linearity): 3.4 µg/mL
- AUC(0-inf) ([2]; female): 276 µg·h/mL
- Cmax ([2]; female): 47 µg/mL
- AUC(0-inf) ([2]; male): 278 µg·h/mL
- Cmax ([2]; male): 55 µg/mL
- NOAEL at 2 weeks [2]: 10 mg/kg/day
- NOAEL at 14 days [2]: 10 mg/kg
- AUC(0-inf) ([3]; female): 167 µg·h/mL
- Cmax ([3]; female): 80 µg/mL
- AUC(0-inf) ([3]; male): 143 µg·h/mL
- Cmax ([3]; male): 85 µg/mL
- NOAEL at 2 weeks ([3]; NOAEL (no observed adverse effect level), monkeys, 2-week GLP IV infusion (20-minute)): 10 mg/kg/day
- NOAEL at 5 days ([3]; NOAEL, 5 days, IV 20 minute infusion): 30 mg/kg
- NOAEL at 14 days ([3]; NOAEL, 14 days, IV 20 minute infusion): 10 mg/kg
- AUC [4, 14]: 20.4 µg·h/mL
- Cmax [4, 14]: 0.848 µg/mL
- AUC [4, 15]: 806 µg·h/mL
- Cmax [4, 15]: 43.9 µg/mL
- half-life (t1/2) ([4]; in man): 27.5 h
- p38 phosphorylation [5]: did not affect
- mortality ([6]; prophylactic, orally prior to injury): reduced
- mortality [6, 16]: significant reductions; also recorded: reduces mortality
- perivascular interstitial edema [6, 16]: significant reductions
- ROS production ([7]; WT mouse neutrophils): increases in ROS production
- ROS production ([7]; WT mouse neutrophils, listed as Pazopanib): increases ROS release
- ROS production ([7]; p47^phox-KI neutrophils, 20 nM pazopanib): failed to elevate ROS production
- mortality ([8]; HCl model, prophylactic, intranasally prior to injury): reduced
- mortality [8, 17]: significant reductions; also recorded: reduces mortality
- perivascular interstitial edema [8, 17]: significant reductions
- BAL cytokine contents [8]: did not affect
- myeloid cell (neutrophil) infiltration in BAL and lungs [8]: did not affect
- BAL cytokine contents ([8]; listed as Pazopanib): no significant effects
- myeloid cell (neutrophil) infiltration in BAL and lungs ([8]; listed as Pazopanib): no significant effects
- phosphorylated AKT levels in lung extracts [8]: increases in phosphorylated AKT levels
- phosphorylated AKT levels in lung extracts ([8]; listed as Pazopanib): increases phosphorylation of AKT at S473
- effect on survival [8]: abrogated the effects of pazopanib
- effect on survival ([8]; listed as Pazopanib): failed to increase survival
- ROS in neutrophils in BALs and lungs ([8]; pazopanib-treated mice subjected to HCl lung insult, DCFDA): elevated ROS
- increase in MAP3K3 protein content induced by fMLP [9]: abrogated the increase in MAP3K3 protein content
- ERK phosphorylation [10]: did not affect
- Margin of safety ([11]; 2-week rat study vs 20 mg clinical starting dose): 5.6 fold
- safety margin based on Cmax ([11]; female rats): 16.2 fold
- safety margin based on Cmax ([11]; male rats): 13.8 fold
- HED for 70 kg human ([11]; rat, 2-week study): 112 mg
- HED of NOAEL [11, 18]: 8 mg/kg
- NOAEL [11, 18]: 50 mg/kg
- Margin of safety ([11]; rat, 5 days, IV 20 minute infusion, clinical dose 20 mg/day or 0.29 mg/kg): 27.6X
- Margin of safety ([11]; rat, 14 days, IV 20 minute infusion, clinical dose 20 mg/day or 0.29 mg/kg): 5.6X
- t1/2 ([11]; rat, in vivo): a few hours
- HED of NOAEL ([11]; rat, single dose, IV bolus): 4.8 mg/kg
- Margin of safety ([11]; rat, single dose, IV bolus, clinical dose 20 mg/day or 0.29 mg/kg): 16.6X
- p47^phox phosphorylation at Ser-208 in neutrophils [12]: inhibit p47^phox phosphorylation at Ser-208; also recorded: inhibits phosphorylation of Ser-208 of p47^phox
- brain IRI ([13]; 60 μg retro-orbital intravenous injection 30 min after reperfusion): reduces brain IRI
- brain IRI ([13]; 60 μg retro-orbital intravenous injection immediately after reperfusion): fails to reduce brain IRI
- infarct size of the brain [13, 19]: no improvement
- neurological score [13, 19]: no improvement
- infarct size [13, 20]: less infarct size
- neurological deficit score [13, 20]: improved neurological deficit score
